Experimental data published in patent US5461057A, “Hydro-ethano-indeno-pyridines” (priority 1994, dated 1995).
Where two headings read alike, the source gives them in different places.

How the values were obtained:
[1] = tested on: histamine-induced dyspnea; assay: Bronchodilator (in vivo) Guinea Pig Dyspnea; conditions: oral, one hour before histamine challenge; for responders at 100 mg/kg / DYSP survivors: 100 mg/kg
Experimental: Unanesthetized guinea pigs (250-350 g), fasted overnight were placed in individual closed aerosol chambers which were connected to a Monoghan Ultrasonic nebulizer. The nebulizer can deliver an ultrasonic fog of uniform particles in a range of 1-8 microns. A 0.1% solution of histamine is aerosolized into the chambers causing the guinea pigs to develop dyspnea. The test drug was given orally one hour before the histamine challenge and the onset of dyspnea was recorded. Saline control animals developed dyspnea within 90-120 seconds of aerosol exposure. […] The data was expressed as the number tested over the number survived. The model was sensitive to bronchodilator and H1 antihistamine activity. Further information relating this test can be obtained from the following two publications which are hereby incorporated by reference: Dungan, K. W. and Lish, P. M. J Allergy 32:139-151 (1961). and Lish, P. M., Robbins, S. I. and Petres E. L. J. Pharmacol. Exp. Therap. 153 L 1538 (1966 ).

[2] = tested on: LOX human melanoma cell adhesion to human fibronectin; assay: LOX melanoma cell adhesion to fibronectin; assay type: cell-based; conditions: Homo sapiens, LOX; for inhibition at 10 µM: read-out: % Inhibition at 10 μM; for inhibition at 50 µM: read-out: % Inhibition at 50 μM; for IC50: Table 4, 1 hour adhesion, read-out: LOX FN IC50
Experimental: (§1) Adhesion assays were run essentially as described previously (Pai et al., J. Biomed. Res. 2: 53, 1992). 96-well plates were coated with human fibronectin (140 ng/well), human vitronectin (75 ng/well), human collagen I (100 ng/well), human collagen IV (100 ng/well), human fibrinogen (1 μg/well), murine laminin (600 ng/well), or polylysine, and incubated overnight in a humidified 37° C. incubator. Excess fibronectin or other substrate was then removed and 0.2 ml of 2 mg/ml bovine serum albumin (BSA)in Dulbecco's phosphate-buffered saline (DPBS) was added to each well, incubated for 2 hours at 37° C., and removed. LOX human melanoma cells, M27 murine lung carcinoma cells or B16F10 mouse melanoma cells were detached from tissue culture flasks with RPMI medium containing 0.2M urea and 10 mM EDTA, and 0.18 ml of cells were added to each well to a final cell concentration of 1×10^5 cells/well. For inhibition studies 20 μl of 10× compound was added to the wells prior to cell addition. Cells were allowed to adhere for 1 hour at 37° C. The wells were then gently washed twice with 0.2 ml DPBS. The fluorescent dye calcein AM (Molecular Probes, Eugene Oreg.) in DPBS (0.1 ml of 1 μM) was added to each well, and the plates were incubated for 1 hour at room temperature. Adherent cells were quantitated by reading the fluorescence on a Cytofluor 2300 fluorescent plate reader (Millipore) at 485 nm excitation and 530 nm emission.
LOX FN-IC50 value for inhibition of adhesion of LOX human melanoma cells to fibronectin coated on a plastic surface.

[3] = Calcein cytotoxicity assay; assay type: cell-based; conditions: human, lox melanoma cells; 2 hours, calcein AM assay; read-out: 2 Hr Tox LD50
Experimental: LOX human melanoma cells were detached from tissue culture flasks with RPMI medium containing 0.2M urea and 10 mM EDTA, and 0.18 ml of cells were added to each well to a final cell concentration of 5×10^4 cells/well. 20 μl of 10× compound was added to the wells prior to cell addition. Cells were incubated with the compound at 37° C. for 1 hour or 5 hour as indicated. Calcein AM in DPBS (0.02 ml of 5 μM) was added to each well, and the plates were incubated for an additional 1 hour at room temperature. Viable cells were quantitated by reading the fluorescence on a Cytofluor 2300 fluorescent plate reader at 485 nm excitation and 530 nm emission.

[4] = tested on: LOX human melanoma cell adhesion to polylysine; assay: LOX melanoma cell adhesion to polylysine; assay type: cell-based; conditions: read-out: Poly Lys IC50
Experimental: as §1

pulmonary resistance = assay: Pulmonary Resistance in the Anesthetized Rat; assay type: in vivo; conditions: 0.5 mpk, i.v., mean of 5 animals, % decrease in pre-drug baseline resistance; for inhibition in vivo at 0.5 mg/kg: Rattus norvegicus, iv, read-out: Pulmonary Resistance in Rats, % Inhibition
Experimental: Rats (400-500 g) anesthetized with dialurethane were surgically prepared with tracheal and esophageal catheters. These catheters were connected to pressure transducers for recording of air flow, tracheal and esophageal pressures. These pressures formed the basis for measurement of pulmonary resistance. Inhibition of pulmonary resistance is a reflection of bronchodilation.
All compounds were tested i. v. in 5 separate animals. All data are expressed in % decrease in the pre-drug baseline resistance and each number given is the mean of the 5 animals tested.
The model is sensitive to bronchodilator activity.
Further information relating this test can be obtained from the following publications which are hereby incorporated by reference: Comroe et al, J. Appl. Physio. 4:439-44 (1959); Dungan et al J. Pharmacol. Exp. Therap. 164:290-301(1968); and Mead, J. et al. J. Appl. Physio. 5:779-796 (1953).

[5] = Cavia porcellus, 1 h, read-out: DYSP survivors (converted)

| Structure (SMILES) | responders at 100 mg/kg [1, 5] | inhibition at 10 µM [2] | inhibition at 50 µM [2] | DYSP survivors [1] | also measured |
| --- | --- | --- | --- | --- | --- |
| COc1ccc(C2(O)c3c(Cl)cccc3C3C4CCC(CC32)N4C)cc1 (centres unmarked) [BBB] | 33.3% | -11.8% | 5.6% | – | – |
| CN1C2CCC1C1=C(C2)C(c2ccccc2)c2cc(O)ccc21 (centres unmarked) [BB] | – | – | 6.5% | – | inhibition at 10 µM ([2]; 1 h): -38.2% |
| COc1ccc(C2(O)c3cc(F)ccc3C3C4CCC(CC32)N4C)cc1 (centres unmarked) [CCC] | 66.7% | – | – | – | – |
| CN1C2CCC1C1C(=C(c3ccc(F)cc3)c3cc(Cl)ccc31)C2 (centres unmarked) [Compound E] | – | 49.5% | 100% | 0/3 | IC50 [2]: 6.2 µM; CC50 at 2 h [3]: 21.8 µM; IC50 [4]: 46.2 µM |
| CN1C2CCC1C1C(=C(c3cccc(F)c3)c3cc(F)ccc31)C2 (centres unmarked) [Compound G] | – | 38.1% | 101% | 1/3 | IC50 [2]: 5.3 µM; CC50 at 2 h [3]: 29.5 µM; IC50 [4]: 63 µM |
| CN1C2CCC1C1C(=C(c3ccc(F)cc3)c3cc(F)ccc31)C2 (centres unmarked) [Compound H] | – | 37.5% | 101% | 1/3 | Pulmonary Resistance in Rats, % Inhibition (pulmonary resistance): 20%; IC50 [2]: 6.5 µM; CC50 at 2 h [3]: 36.9 µM; IC50 [4]: 23.7 µM |
| CN1C2CCC1C1C(=C(c3cccc(Cl)c3)c3ccccc31)C2 (centres unmarked) [D] | – | 56.5% | 101% | 1/3 | IC50 [2]: 7.4 µM; CC50 at 2 h [3]: 34.6 µM; IC50 [4]: 71.9 µM |
| CN1C2CCC1C1=C(C2)C(c2cccs2)c2ccccc21 (centres unmarked) [GGG] | – | -27.6% | 64.4% | – | – |
| COc1ccc(C2c3ccccc3C3C2CC2CCC3N2C)cc1 (centres unmarked) [GG] | – | 7.1% | 39.1% | 2/3 | – |
| CN1C2CCC1C1c3ccccc3C(O)(c3ccc(Cl)cc3)C1C2 (centres unmarked) [HH] | 33.3% | 2.5% | 36.9% | – | – |
| CN1C2CCC1C1c3ccc(Cl)cc3C(O)(c3ccc(F)cc3)C1C2 (centres unmarked) [II] | 100% | 5.4% | 34.8% | – | – |
| CN1C2CCC1C1C(=C(c3ccccc3)c3cc(F)ccc31)C2 (centres unmarked) [I] | – | 35.6% | 100% | 1/3 | IC50 [2]: 7.6 µM; CC50 at 2 h [3]: 55.9 µM; IC50 [4]: 22.8 µM |
| CSc1ccc(C2(O)c3ccccc3C3C4CCC(CC32)N4C)cc1 (centres unmarked) [KK] | – | 7.2% | 32.8% | – | responders at 50 mg/kg [1, 5]: 0% |
| CN1C2CCC1C1c3cc(Cl)ccc3C(O)(c3ccc(F)cc3)C1C2 (centres unmarked) [LL] | – | -12.2% | 26.6% | – | – |
| CN1C2CCC1C1C(=C(c3ccccc3)c3ccc(F)cc31)C2 (centres unmarked) [M] | – | 18.4% | 99.6% | 0/3 | IC50 [2]: 12.5 µM; CC50 at 2 h [3]: 39.8 µM; IC50 [4]: 72.7 µM |
| CN1C2CCC1C1c3ccccc3C(O)(c3cccc(C(F)(F)F)c3)C1C2 (centres unmarked) [NN] | – | 9.4% | 24.7% | – | responders at 50 mg/kg [1, 5]: 0% |
| Cc1ccc(C2(O)c3ccccc3C3C4CCC(CC32)N4C)cc1 (centres unmarked) [OO] | 33.3% | 6.6% | 23.7% | – | inhibition in vivo at 0.5 mg/kg (pulmonary resistance): -18% |
| CN1C2CCC1C1C(=C(c3cccc(F)c3)c3ccccc31)C2 (centres unmarked) [O] | – | 5.2% | 97.1% | 0/3 | IC50 [2]: 11.2 µM; CC50 at 2 h [3]: 72 µM; IC50 [4]: 130 µM |
| CN1C2CCC1C1c3ccccc3C(O)(c3cccc(Cl)c3)C1C2 (centres unmarked) [QQ] | – | 9.2% | 21.1% | – | inhibition in vivo at 0.5 mg/kg (pulmonary resistance): -30%; responders at 50 mg/kg [1, 5]: 33.3% |
| CN1C2CCC1C1c3ccccc3C(O)(c3cccc(F)c3)C1C2 (centres unmarked) [RR] | 66.7% | 13.8% | 17.6% | – | inhibition in vivo at 0.5 mg/kg (pulmonary resistance): 28%; responders at 50 mg/kg [1, 5]: 0% |
| CN1C2CCC1C1c3ccccc3C(O)(c3ccccc3C(F)(F)F)C1C2 (centres unmarked) [TT] | – | 16.7% | 16.1% | – | inhibition in vivo at 0.5 mg/kg (pulmonary resistance): 7%; responders at 50 mg/kg [1, 5]: 0% |
| CN1C2CCC1C1c3cc(Cl)ccc3C(O)(c3ccccc3)C1C2 (centres unmarked) [VV] | 100% | 0.9% | 15.9% | – | – |
| CN1C2CCC1C1c3ccccc3C(O)(c3ccc4c(c3)OCO4)C1C2 (centres unmarked) [WW] | – | 1.2% | 11.9% | – | inhibition in vivo at 0.5 mg/kg (pulmonary resistance): 39% |
| COc1ccc(C2(O)c3cc(Cl)ccc3C3C4CCC(CC32)N4C)cc1 (centres unmarked) [XX, 7-Chloro-5-(p-methoxyphenyl)-2-methyl-1,3-ethano-1,2,3,4,4a,9b-hexahydro-5H-indeno[1,2-c]pyridin-5-ol] | 100% | -23.1% | 8.1% | – | responders at 10 mg/kg ([1]; Cavia porcellus, 1 h, 10 mg/kg, read-out: DYSP survivors (converted)): 66.7%; responders at 20 mg/kg ([1]; Cavia porcellus, 1 h, 20 mg/kg, read-out: DYSP survivors (converted)): 66.7%; responders at 50 mg/kg [1, 5]: 100% |
| CN1C2CCC1C1c3ccc(Cl)cc3C(O)(c3ccccc3)C1C2 (centres unmarked) [YY] | 66.7% | -14.6% | 7.4% | – | responders at 50 mg/kg [1, 5]: 100% |
| COc1ccc(C2(O)c3ccc(Cl)cc3C3C4CCC(CC32)N4C)cc1 (centres unmarked) [ZZ] | 33.3% | -9.7% | 7% | – | – |
